Source: US20250236596A1, “HYDROXYLAMINE-BASED EGFR INHIBITORS FOR TREATMENT OF CANCER WITH BRAIN METASTASES” (University of Georgia Research Foundation, Inc., priority 2022, published 2025)

Tests used:
CYP1A2 = CYP1A2 (Homo sapiens, UniProt P05177); assay: Human CYP450 inhibition in human liver microsomes, CYP1A2; format: in vitro ADME; conditions: pooled human liver microsomes, probe phenacetin (40 μM), O-demethylation
Protocol: Assessment of compound 15 was carried out at Pharmaron Inc. for its potential to inhibit cytochrome P450 (CYP) isoforms using human liver microsomes. The activities tested were CYP1A2-mediated phenacetin O-demethylation, CYP2C19-mediated (S)-mephenytoin 4′-hydroxylation, CYP2C9-mediated diclofenac 4′-hydroxylation, CYP2D6-mediated dextromethorphan O-demethylation and CYP3A4-mediated midazolam 1′-hydroxylation. Concentrations of substrates were phenacetin (40 μM), mephenytoin (50 μM), diclofenac (6 μM), dextromethorphan (2 μM) and midazolam (1 μM). Probe substrates phenacetin, mephenytoin and dextromethorphan were incubated at 37° for 20 min. Probe substrates diclofenac and midazolam were incubated at 37° for 5 min. […] The reactions were initiated by adding NADPH (1 mM final concentration) after a 5 min-preincubation and the assay was ran in duplicate (n=2). Samples were analyzed by UPLC-MS/MS.

[1] = tested on: 468-member human kinase panel; assay: KINOMEScan kinase selectivity panel, S score; format: binding; conditions: 1 μM; 6/403 nonmutant kinases
Source text: Percent control was mapped onto the kinome tree using TREEspot™.

[2] = tested on: Salmonella strains (TA98, TA100, TA1537 and TA1535); format: cell-based; conditions: bacterial cytotoxicity observed above
Protocol: Compounds were assessed for mutagenicity at Eurofins Panlabs. in 384-well plates using four Salmonella strains: TA98, to probe for frameshift mutation (with quercetin as control), TA100 and TA1535, to probe for base pair […] (with streptozotocin as control), and TA1537, to probe for frameshift mutations (with aminoacridine as control) as previously described.^21 Each compound was incubated at 37° C. for 96 h at four different concentrations (5, 10, 50, and 100 μM), with each concentration tested using 48 replicates, both with and without rat liver S9 metabolic activation. A concurrent bacterial cytotoxicity assay was ran at 0.6, 1.2, 2.5, 5, 10, 25, 50 and 100 μM to rule out false negatives. Bacterial cytotoxicity was expressed as percent of control growth (OD650). Compounds with growth of less than 60% control were flagged and considered bacterial cytotoxic. […] Significances of the positive counts between the treatment and control were determined using one-tailed Fisher's exact test.

[3] = tested on: NCI-H1975 (EGFR L858R/T790M); assay: CellTiter-Glo viability assay, NCI-H1975; format: cell-based, human; conditions: 72 h, result in words
Protocol: The A431, HCC827, SK-BR-3, ZR-75-30, AU565 and Caco-2 cell lines were obtained from ATCC. The NCI-H1975 cell line was obtained from SIBS. The NCI-H3255 cell line was obtained from CoBioer. Engineered Ba/F3 cell lines were obtained from Crown Bioscience. MCKII-MDR1 cells were obtained from the Netherlands Cancer Institute. HEK293 cells were obtained from Invitrogen. A431 cells were cultured in DMEM (Life Technologies) with 10% FBS. HCC827, NCI-H1975 and AU565 cells were cultured in RPMI1640 (Invitrogen) with 10% FBS. NCI-H3255 cells were cultured in BEGM (Lonza) with 10% FBS. Ba/F3 EGFR-del E746_A750/C797S and Ba/F3 EGFR-L858R/C797S cells were cultured in RPMI (Invitrogen) with 10% FBS. SK-BR-3 cells were cultured in McCoy's 5a (Invitrogen) with 10% FBS. ZR-75-30 cells were cultured in RPMI1640 (Invitrogen) with 20% FBS. BT474 cells were cultured in DMEM (Gibco) with 10% FBS and 10 μg/mL Insulin. Caco-2 and MCKII-MDR1 culture information is given in the permeability studies section. […]
Viability assays using A431, HCC827, NCI-H1975, NCI-H3255, Ba/F3 EGFR-del E746_A750/C797S, Ba/F3 EGFR-L858R/C797S, AU565, SK-BR-3 and ZR-75-30 cells were performed at Crown BioScience. […] Dose-response curves were generated and used to calculate the IC50 values which were calculated on GraphPad Prism from the non-linear regression equation fitted with a sigmoidal dose response and are presented as the mean±SEM.

Sequence of CYP1A2 (P05177 whole entry, canonical isoform): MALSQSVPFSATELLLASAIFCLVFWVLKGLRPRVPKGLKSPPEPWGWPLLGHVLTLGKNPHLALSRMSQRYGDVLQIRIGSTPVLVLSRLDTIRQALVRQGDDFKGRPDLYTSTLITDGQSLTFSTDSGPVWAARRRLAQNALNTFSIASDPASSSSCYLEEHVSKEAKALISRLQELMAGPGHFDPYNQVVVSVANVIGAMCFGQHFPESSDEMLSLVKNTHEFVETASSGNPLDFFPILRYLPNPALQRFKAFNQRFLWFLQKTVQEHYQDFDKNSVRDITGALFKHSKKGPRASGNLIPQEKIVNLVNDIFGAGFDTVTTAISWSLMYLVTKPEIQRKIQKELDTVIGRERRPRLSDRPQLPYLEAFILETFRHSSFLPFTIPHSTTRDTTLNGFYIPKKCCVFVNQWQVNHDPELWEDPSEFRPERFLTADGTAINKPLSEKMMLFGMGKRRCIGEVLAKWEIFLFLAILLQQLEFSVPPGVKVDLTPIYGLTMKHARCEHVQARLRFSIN

**Q.** For `COc1cc2ncnc(Nc3cccc(Cl)c3F)c2cc1OCCON1CCN(C)CC1` [Compound 15, N-(3-chloro-2-fluorophenyl)-7-methoxy-6-(2-((4-methylpiperazin-1-yl)oxy)ethoxy)quinazolin-4-amine], which IC50 at 20 min (CYP1A2) is on record?
**A.** Its IC50 at 20 min is over 30 µM.

**Q.** What about the “S(10) score” value [1] of the same compound?
**A.** The value was 0.015.

**Q.** And the “concentration up to which negative ames result is valid” value [2]?
**A.** Its value is “up to 50 uM”.

**Q.** What about the antiproliferative activity [3] of the same compound?
**A.** Its antiproliferative activity is “no activity”.
